Experimental data: patent US20260240914A1, “MENIN-MLL INHIBITORS AND COMPOSITIONS FOR PROLIFERATION OF BETA CELLS” (BIOMEA FUSION, INC., priority 2022, published 2026)

Experiments:
Format in all cases: cell-based
[1] = system: human islet beta cells; test: Glucose stimulated insulin secretion assay in human islet microtissues
Protocol: (§1) The ability of menin-MLL inhibitors to induce beta cell proliferation is tested on human islet microtissue preparations (InSphero). Briefly, human islet microtissues are produced by enzymatic dissociation of the primary islet cells followed by controlled scaffold-free hanging-drop-based self-reaggregation of the islet cells (Misun et al., 2020, Adv. Biosyst. 2020, 4, 1900291). The process helps eliminate contaminating exocrine cells, while enabling homogenous and native-like distribution of endocrine cells within each islet microtissue. Islet microtissues generated by this process are uniform in size, and cellular composition, long lived, functionally robust and display long-term and stable functionality and viability during in vitro culture (Misun et al., 2020, Adv. Biosyst. 2020, 4, 1900291). […]
(§2) At the described termination point (1, 2, or 3 weeks), culture media supernatants were collected for measurement of chronic insulin secretion (insulin secreted since last medium exchange, i.e. 72 hours in this project). […] Tissues were next analyzed for total ATP content using the Promega CellTiter-Glo® Luminescent Cell Viability Assay. […] Supernatants and lysates were appropriately diluted and total and secreted insulin were quantified using ALPCO Stellux® Chemi Human Insulin ELISA.

[2] = system: human pancreatic islet beta cells; test: Beta cell proliferation in human islet microtissues (EdU / NKX6.1 3D staining and microscopy); conditions: for proliferating beta cell fraction (EdU+NKX6.1+/NKX6.1 %): 0.3 μM
Protocol: The ability of menin-MLL inhibitors to induce beta cell proliferation is tested on human islet microtissue preparations (InSphero). Briefly, human islet microtissues are produced by enzymatic dissociation of the primary islet cells followed by controlled scaffold-free hanging-drop-based self-reaggregation of the islet cells (Misun et al., 2020, Adv. Biosyst. 2020, 4, 1900291). The process helps eliminate contaminating exocrine cells, while enabling homogenous and native-like distribution of endocrine cells within each islet microtissue. Islet microtissues generated by this process are uniform in size, and cellular composition, long lived, functionally robust and display long-term and stable functionality and viability during in vitro culture (Misun et al., 2020, Adv. Biosyst. 2020, 4, 1900291). The methodology confirms primary human beta cells can be cultured long term (few weeks) under ex-vivo culture conditions to enable beta cell expansion ex-vivo.
Islet microtissues (MTs) were aggregated for 5 days and then released into ultra-low attachment plates. Half of the plates were maintained in standard culture medium (5.5 mM glucose), and half were cultured in high-glucose culture medium (GTX, 8 mM glucose) starting at Day 9, for the duration of the whole experiment. Starting on Day 12 (after 3 days of GTX pre-treatment for the relevant plates), dosing with compound 10, a representative irreversible menin-MLL inhibitor, was initiated, using a Tecan D300e Digital Dispenser for harmine and Biomea compound. DMSO was normalized by volume across all wells. Media was exchanged and compounds redosed every 2-3 days throughout the experiment. EdU was included during the final 4 days of each treatment period. Compound dosing was randomized; to avoid compound cross-contamination between wells, all media exchanges were performed using 96-well deep-well plates with pipette tip exchange.
Proliferating cells were labeled in 3D by incubating MTs with […] EdU during the final 4 days of compound treatment. At the described termination point (1, 2, or 3 weeks), MTs were washed twice with PBS, fixed for 15 min in 4% PFA, washed twice more with PBS and stored in PBS with 0.05% sodium azide until staining. Islet MTs were then permeabilized with permeabilization buffer (Triton® X-100, 0.5% in PBS w/o Mg2+Ca2+) and washed twice with PBS. EdU was labeled using the Click-it reaction (Click-iT™ EdU Alexa Fluor™ 647 HCS Assay, Thermo Fisher). MTs were washed twice with PBS and blocked with 10% FCS solution to prevent nonspecific antibody binding, before overnight incubation with rabbit mAB NKX6.1 [EPR20405] (Abcam, ab221549) at a 1:200 dilution in antibody dilution buffer (10% FCS, 0.2% Triton® X-100 in PBS w/o Mg2+Ca2+) as a […]. Goat anti-rabbit secondary antibody AF568 (ThermoFisher A11036) was used as secondary antibody at a 1:200 dilution in antibody dilution buffer, along with DAPI. Finally, islet MTs were transferred into Akura 384-well plates and cleared with ScaleS4 for 3D imaging. Images were acquired using the Yokogawa CQI Benchtop High-Content Analysis System, taking fluorescent images in […] z-steps in blue, red and far-red channels. DAPI-, NKX6.1- and EdU-positive nuclei and signal colocalization were quantified in 3D using a customized CellPathfinder pipeline. Proliferating cells and proliferating-cells were manually counted to validate automated results. Statistical significance was determined with One-way ANOVA and Dunnett's multiple comparisons test, rejecting the null hypothesis at p=0.05. Outliers were detected with ROUT's outlier test (Q=5%). No outlier test was applied to the proliferating cells.

[3] = system: human islet microtissues; test: Total ATP content of human islet microtissues (CellTiter-Glo cell viability); conditions: 0.075 μM, 0.15 μM and 0.3 μM; 1, 2 or 3 weeks; through the duration of the assay
Protocol: as §1, §2

[4] = system: human islet beta cells; test: Total insulin content of human islet microtissues (insulin ELISA of lysates)
Protocol: as §1, §2

[5] = standard glucose culture conditions (5.5 mM glucose)
[6] = compound 10 treatment, dose-dependent

Compound: C=CC(=O)N[C@@H]1CCCN(Cc2ccnc(C(=O)Nc3ccc(-c4cc5c(N6CCOCC6)ncnc5[nH]4)cc3)c2)C1 (racemic) [Compound 10]
- glucose stimulated insulin secretion ([1]; high glucose conditions (8 mM glucose), compared to vehicle treatment): improved
- glucose stimulated insulin secretion (improvement) [1, 5]: not observed
- proliferation at all three concentrations ([2]; 0.075 μM, 0.15 μM, and 0.3 μM, 7, 14, 21 days, reached highest by day 21): increase in proliferation
- proliferating beta cell fraction (EdU+NKX6.1+/NKX6.1 %) ([2]; Day 14 of culture, compared to DMSO control (FIG. 1, graphs B)): substantially
- proliferating beta cell fraction (EdU+NKX6.1+/NKX6.1 %) ([2]; Day 21 of culture, compared to DMSO control (FIG. 2, graphs B)): substantially
- Total cell proliferation ([2]; compared to DMSO control): not increased
- Total β-cell count [2, 6]: significantly increased
- β-cell fraction (NKX6.1+/DAPI+ %) [2, 6]: significantly increased
- β-cell proliferation relative to solvent control ([2]; high glucose medium (8 mM glucose), 0.075 μM, 0.15 μM, and 0.3 μM, more pronounced than in standard medium): dose dependent increase
- viability as revealed by ATP content readout [3]: good viability
- beta cell insulin content ([4]; high glucose conditions (8 mM glucose), treated for 2 and 3 weeks, vs vehicle control (DMSO)): dose dependent increase
- total insulin content [4, 5]: largely unchanged
